{"source": "patent US8129340B2", "about": "“Inhibitors of protein phosphatase 1, GADD34 and protein phosphatase 1/GADD34 complex, preparation and uses thereof” (Institut Gustave Roussy, priority 2006, dated 2012)", "key": {"CT26 tumour cells": {"tested_on": "CT26 tumour cells", "assay": "Anti-tumour vaccination: dying treated CT26 cells injected in one flank, later challenge with live tumour cells", "type": "in vivo, BALB/c mice", "conditions": "without cell death inducer"}, "cell surface CRT": {"tested_on": "cell surface CRT", "assay": "Fluorescence detection of cell surface CRT on CT26 cells (cytofluorometry)", "type": "cell-based, murine", "conditions": "agent alone", "protocol": "FIG. 1SA, FIG. 1SB: Kinetics of CRT exposure. CT26 cells were treated with mitoxantrone for the indicated period, followed by immunofluorescence staining with a CRT-specific antibody and cytofluorometric analysis.\nFIG. 2E: Correlation between CRT exposure and immunogenicity. The surface exposure of CRT was determined by immunofluorescence cytometry while gating on viable (propidium iodine-negative) cells (inserts) and was correlated with the immunogenicity of cell death (as determined in FIG. 1). CO, control; Tg, thapsigargin; Tu, tunicamycin.\nFIG. 5E: Kinetics of CRT exposure determined by FACS analysis after incubation of cells with the indicated agents.\nFIG. 5F-FIG. 5G: PP1/GADD34 inhibitors render cell immunogenic via CRT. Tumour cells were first transfected with a control siRNA or a CRT-specific siRNA and then treated in vitro with etoposide, alone or in combination with PP1/GADD34 inhibitors. […] The results represent the % of tumour free mice (comprising a total of 12 to 18 mice per group).\nCT26 cells (on a glass slide or in 12-well plates) were first washed with FACS buffer (1×PBS, 5% fetus bovine serum, and 0.1% sodium azide) and then incubated with rabbit anti-mouse CRT antibody (1:100, Stressgen) in FACS buffer at 4° C. for 30 min. Cells reacted with anti-rabbit IgG (H+L) Alexa fluor 488-conjugates (1:500) in FACS buffer at 4° C. for 30 min. After washing three times with FACS buffer, surface CRT was detected by cytofluorometric analysis on a FACS Vantage. In some experiments, cells were fixed with 4% paraformaldehyde, counterstained with Hoechst (2 μM; Sigma), followed by fluorescence microscopic assessment with a Leica IRE2 microscope equipped with a DC300F camera."}, "ERp57": {"tested_on": "ERp57", "assay": "Flow cytometric detection of surface ERp57 on HeLa cells", "type": "cell-based, human", "conditions": "150 nM, 2 h", "protocol": "HeLa cells were treated with or without mitoxantrone (MTX, 1 μM) or tautomycin (Tau, 150 nM, Sigma) for 2 h. Cells were washed twice with PBS and fixed in PFA (4% w/v) for 5 min. HeLa cells were stained with an antibody against Erp57 (pAb from Abcam, ab10827) at 1:200 dilution or isotype control, in staining buffer (PBS, 1% FCS) for 30 min on ice, followed by washing. An anti-rabbit Alexa fluor 488 immunoglobulin conjugate (Molecular Probes-Invitrogen) diluted at 1:500 was added for an additional 30 min on ice before washing and analysed by flow cytometry (FACScan, Becton Dickinson). Propidium Iodide (50 μg/ml, Becton Dickinson) was added to the samples to label and exclude permeabilized (dead) cells. The CellQuest software was used to analyse the mean fluorescence intensity (MFI) and the percentage of ERp57 positive cells."}, "CT26 tumours [1]": {"tested_on": "CT26 tumours", "assay": "Intratumoural treatment of established CT26 tumours in immunocompetent mice", "type": "in vivo, BALB/c mice (wild type)"}, "CT26 tumours [2]": {"tested_on": "CT26 tumours", "assay": "Intratumoural treatment of established CT26 tumours in immunodeficient mice", "type": "in vivo, athymic nu/nu Balb/c mice", "conditions": "single intratumoural injection"}}}
{"smiles": "CO[C@H]([C@H](O)CC(=O)[C@@H](C)[C@@H](O)CC[C@@H](C)[C@@H]1O[C@]2(CC[C@@H](C)[C@H](CC[C@H](C)C(C)=O)O2)CC[C@@H]1C)[C@H](OC(=O)C[C@@H](O)C1=C(C)C(=O)OC1=O)C(C)C", "note": "[tautomycin]", "values": [{"measurement": "induction of immunogenic cell death by the inhibitor alone", "setting": "CT26 tumour cells", "value": "not sufficient to induce immunogenic cell death"}, {"measurement": "induction of CRT exposure at the cell surface", "setting": "cell surface CRT", "value": "efficiently induced"}, {"measurement": "surface exposure of ERp57, HeLa cells", "setting": "ERp57", "value": "stimulates the surface exposure or ERp57"}, {"measurement": "therapeutic effect combined with a cell death inducer (etoposide or mitomycin C), immunocompetent mice", "setting": "CT26 tumours [1]; intratumoural injection with etoposide or mitomycin C", "value": "stable disease or complete tumour regression"}, {"measurement": "therapeutic effect of single agent on established tumours, immunocompetent mice", "setting": "CT26 tumours [1]; single intratumoural injection, 14-day-old CT26 tumours", "value": "no major therapeutic effect"}, {"measurement": "therapeutic effect of single agent on established tumours, nu/nu mice", "setting": "CT26 tumours [2]", "value": "no major therapeutic effect"}]}
